# ChEMBL document CHEMBL5096207, “Identification of a Hydroxypyrimidinone Compound (21) as a Potent APJ Receptor Agonist for the Potential Treatment of Heart Failure” (J Med Chem, 2021)
# Tests used:
# [1] = Oral bioavailability in dog at 1 mg/kg by LC/MS/MS analysis; format: ADME, organism-based, Canis lupus familiaris; settings: in vivo
# [2] = AUC (0 to 24hrs) in overnight fasted Sprague-Dawley rat at 1 mg/kg, po or 1 mg/kg, iv measured upto 48 hrs by LC/MS/MS analysis; format: ADME, organism-based; set-up: time < 48 hrs, dose 1 mg/kg, route po; settings: in vivo
# [3] = AUC (0 to 24hrs) in overnight fasted cynomolgus monkey at 3 mg/kg, po or 1 mg/kg, iv measured upto 72 hrs by LC/MS/MS analysis; format: ADME, organism-based, Macaca fascicularis; set-up: time < 72 hrs, dose 3 mg/kg, route po; settings: in vivo
# [4] = Toxicity in Sprague-Dawley rat assessed as hemodynamic reponse by measuring increase in heart rate at 0.001 to 0.1 mg/kg/min, iv infusion administered for 15 mins by PV-loop based analysis; format: organism-based; settings: in vivo, dose 0.001-0.1 mg/kg/min
# [5] = Volume of distribution at steady state in overnight fasted cynomolgus monkey at 3 mg/kg, po or 1 mg/kg, iv measured upto 72 hrs by LC/MS/MS analysis; format: ADME, organism-based, Macaca fascicularis; settings: in vivo
# [6] = Volume of distribution at steady state in dog at 1 mg/kg, po or 1 mg/kg, iv by LC/MS/MS analysis; format: ADME, organism-based, Canis lupus familiaris; settings: in vivo
# [7] = Cmax in overnight fasted cynomolgus monkey at 3 mg/kg, po or 1 mg/kg, iv measured upto 72 hrs by LC/MS/MS analysis; format: ADME, organism-based, Macaca fascicularis; set-up: time < 72 hrs, dose 3 mg/kg, route po; settings: in vivo
# [8] = Cmax in dog at 1 mg/kg, po or 1 mg/kg, iv by LC/MS/MS analysis; format: ADME, organism-based, Canis lupus familiaris; set-up: dose 1 mg/kg, route po; settings: in vivo
# [9] = Oral bioavailability in overnight fasted Sprague-Dawley rat at 1 mg/kg measured upto 48 hrs by LC/MS/MS analysis; format: ADME, organism-based; settings: in vivo
# [10] = Oral bioavailability in overnight fasted cynomolgus monkey at 3 mg/kg measured upto 72 hrs by LC/MS/MS analysis; format: ADME, organism-based, Macaca fascicularis; settings: in vivo
# [11] = Volume of distribution in overnight fasted Sprague-Dawley rat at 1 mg/kg, po or 1 mg/kg, iv measured upto 48 hrs by LC/MS/MS analysis; format: ADME, organism-based; settings: in vivo
# [12] = Cmax in overnight fasted Sprague-Dawley rat at 1 mg/kg, po or 1 mg/kg, iv measured upto 48 hrs by LC/MS/MS analysis; format: ADME, organism-based; set-up: time < 48 hrs, dose 1 mg/kg, route po; settings: in vivo
# [13] = Drug excretion in dog urine at 1 mg/kg, iv; format: ADME, organism-based, Canis lupus familiaris; settings: read-out: Drug excretion
# [14] = Drug excretion in Sprague-Dawley rat urine at 1 mg/kg, iv; format: ADME, organism-based; settings: read-out: Drug excretion
# [15] = AUC (0 to 24hrs) in dog at 1 mg/kg, po or 1 mg/kg, iv by LC/MS/MS analysis; format: ADME, organism-based, Canis lupus familiaris; set-up: dose 1 mg/kg, route po; settings: in vivo
# Apelin receptor = target: T1, Apelin receptor (Homo sapiens, UniProt P35414); assay: Agonist activity at human APJ expressed in HEK293 cells assessed as inhibition of forskolin-stimulated cAMP production incubated for 60 mins by fluorescence based analysis
# T1 sequence (P35414 whole entry): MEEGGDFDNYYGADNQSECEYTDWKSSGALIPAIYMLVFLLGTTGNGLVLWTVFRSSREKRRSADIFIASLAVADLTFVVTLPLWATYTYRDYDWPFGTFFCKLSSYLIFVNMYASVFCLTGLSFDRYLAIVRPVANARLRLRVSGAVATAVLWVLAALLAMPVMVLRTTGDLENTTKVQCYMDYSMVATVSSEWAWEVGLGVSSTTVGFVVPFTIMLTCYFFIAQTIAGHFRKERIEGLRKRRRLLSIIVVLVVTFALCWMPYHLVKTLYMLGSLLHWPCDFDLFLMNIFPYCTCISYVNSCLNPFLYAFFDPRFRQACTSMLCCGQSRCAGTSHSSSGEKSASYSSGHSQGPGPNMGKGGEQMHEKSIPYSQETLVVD
bioavailability [1],AUC(0-t) at 48 h [2],AUC(0-t) at 72 h [3],Vdss [5],Vdss [6],Cmax [7],Cmax [8],bioavailability [9],bioavailability [10],Vdss [11],Cmax [12],dose excreted [13],dose excreted [14],AUC(0-t) [15],EC50 (Apelin receptor),SMILES,Activity [4]
76%,3.7 µM·h,2.5 µM·h,0.2 L/kg,0.2 L/kg,1400 nM,6500 nM,54%,27%,1.6 L/kg,2200 nM,< 4%,4%,14.2 µM·h,–,CCc1cccc(CC)c1-n1c(-c2ccn(C)n2)nc(=O)c(C(=O)N2CC[C@@H](c3ncc(Cl)cc3F)C2)c1O,Non-Toxic
–,–,–,–,–,–,–,–,–,–,–,–,–,–,0.4 nM,CCOCc1nc(=O)c(C(=O)N2CC[C@H](c3ccccc3)C2)c(O)n1-c1c(OC)cccc1OC,–
–,–,–,–,–,–,–,–,–,–,–,–,–,–,–,CC(CCc1ccc(O)cc1)NCCc1ccc(O)c(O)c1 (configuration not stated) [DOBUTAMINE],Toxic
